Data set [1] in a line: Hygroscopicity study (moisture uptake, dynamic vapor sorption analyzer). Format: physicochemical. As to conditions: for % Moisture Uptake: percentage weight gain. The source says:
^a Measured on a dynamic vapor sorption analyzer as percentage weight

Data set [2] can be described thus: Aqueous solubility under acidic conditions. It is filed as physicochemical. As to conditions: water, pH<5.34. As for the experimental part: The aqueous solubility of the diacid of the compound of Formula (I) is very limited under acidic conditions. The solubility is less than 0.1 ug/mL at pH<5.34.
A short description of data set [3]: Bioavailability study in dogs (oral capsule formulations; intraduodenal non-aqueous solution). Format: in vivo, male beagle dogs. Particulars: for bioavailability: plasma.
Data set [4] in a line: Enterohepatic extraction ratio and theoretical maximum oral bioavailability. It is filed as in vivo. Particulars: dogs.
The nature of data set [5]: Accelerated stability studies. Particulars: stored at 50° C. Format: physicochemical.

Data on three compounds can be found in patent publication US6300359A, “(E)-3-[1-n-Butyl-5-[2-(2-carboxyphenyl)methoxy-4-chlorophenyl]-1H-pyrazol-4 -yl]-2-[(5-methoxy-2,3-dihydrobenzofuran-6-yl)methyl]-prop-2-enoic acid monoargininyl salt” (SmithKline Beecham Corporation, priority 2000, dated 2001).

Entries after “also recorded” stand apart in the source; their conditions may differ. Where a name gives a salt, the structure may show the parent alone. Read-outs that look alike come from different tables or passages of the source.

By solubility is commonly meant the dissolved amount per volume that the medium holds. A higher solubility goes with a readily soluble substance. By bioavailability is commonly meant dose-corrected exposure relative to a reference, in per cent. For `CCCCn1ncc(/C=C(\Cc2cc3c(cc2OC)CCO3)C(=O)O)c1-c1ccc(Cl)cc1OCc1ccccc1C(=O)O` [Diacid, (E)-3-[1-n-Butyl-5-[2-(2-carboxyphenyl)methoxy-4-chlorophenyl]-1H-pyrazol-4-yl]-2-[(5-methoxy-2,3-dihydrobenzofuran-6-yl)methyl]-prop-2-enoic acid], the “% Moisture Uptake” value in data set [1] (0% relative humidity) worked out at 0%; in data set [1] (10% relative humidity), 0.077%; in data set [1] (20% relative humidity), 0.088%; in data set [1] (30% relative humidity), 0.126%; in data set [1] (40% relative humidity) it was 0.184%; in data set [1] (50% relative humidity) it was 0.245%. Moreover, the “% Moisture Uptake” value in data set [1] (60% relative humidity) turned out to be 0.316%; in data set [1] (70% relative humidity), 0.395%; in data set [1] (80% relative humidity), 0.509%; in data set [1] (90% relative humidity), 0.518%. Further, the solubility in data set [2] is under 0.1 µg/mL. For the same compound, the bioavailability in data set [3] (dog, po, 10 mg/kg, dogs, oral dosing of a simple capsule formulation, read-out: oral bioavailability) was found to be 3.9%; in data set [3] (dog, po, dog, oral capsule with 0.5% Tween 80 & 2 MEq NMG (also some microcrystalline cellulose, lactose, starch), read-out: Mean % Oral Bioavailability ± SD), 6.3 ± 5.3%; in data set [3] (dog, po, dog, oral capsule with 0.5% Tween 80 (also some microcrystalline cellulose, lactose, starch), read-out: Mean % Oral Bioavailability ± SD) it was 2.3 ± 3.7%. For the same compound, in data set [4] (dog, in vivo), the hepatic extraction ratio was determined as 0.82. Besides, the “theoretical maximum value of oral bioavailability” value in data set [4] (from enterohepatic extraction ratio) is on record as 18%.

For `CCCCn1ncc(/C=C(\Cc2cc3c(cc2OC)CCO3)C(=O)O)c1-c1ccc(Cl)cc1OCc1ccccc1C(=O)O` [Disodium Salt], the “% Moisture Uptake” value stood at 0% in data set [1] (0% relative humidity); 1.849% in data set [1] (10% relative humidity); 2.838% in data set [1] (20% relative humidity); 3.821% in data set [1] (30% relative humidity); 5.013% in data set [1] (40% relative humidity); 6.773% in data set [1] (50% relative humidity). Moreover, the “% Moisture Uptake” value in data set [1] (60% relative humidity) is 10.188%; in data set [1] (70% relative humidity), 15.919%; in data set [1] (80% relative humidity), 22.472%; in data set [1] (90% relative humidity), 33.671%. Besides, the bioavailability in data set [3] (dog, dog, non-aqueous solution (99% PEG 400, 1% DMSO) dosed intraduodenally, only 2 animals, read-out: Mean % Oral Bioavailability ± SD) worked out at 14.5%; in data set [3] (dog, po, dog, oral capsule (with microcrystalline cellulose as diluent), read-out: Mean % Oral Bioavailability ± SD), 6.2%.

In the case of `CCCCn1ncc(/C=C(\Cc2cc3c(cc2OC)CCO3)C(=O)O)c1-c1ccc(Cl)cc1OCc1ccccc1C(=O)O` [Monoargininyl Salt, (E)-3-[1-n-Butyl-5-[2-(2-carboxyphenyl)methoxy-4-chlorophenyl]1H-pyrazol-4-yl]-2-[(5-methoxy-2,3-dihydrobenzofuran-6-yl)methyl]-prop-2-enoic Acid, Monoargininyl Salt], the “% Moisture Uptake” value was 0% in data set [1] (0% relative humidity); 0.261% in data set [1] (10% relative humidity, listed as Monoarginine); 0.382% in data set [1] (20% relative humidity, listed as Monoarginine); 0.526% in data set [1] (30% relative humidity, listed as Monoarginine); 0.689% in data set [1] (40% relative humidity, listed as Monoarginine); 0.827% in data set [1] (50% relative humidity, listed as Monoarginine). In addition, the “% Moisture Uptake” value in data set [1] (60% relative humidity, listed as Monoarginine) was found to be 0.982%; in data set [1] (70% relative humidity, listed as Monoarginine), 1.092%; in data set [1] (80% relative humidity, listed as Monoarginine) it was 1.434%; in data set [1] (90% relative humidity, listed as Monoarginine), 2.334%. For the same compound, the “hygroscopicity (in words)” value in data set [1] (compared with diacid and amorphous disodium salt, listed as monoarginine salt) is recorded as “minimally hygroscopic; also recorded: slightly more hygroscopic than the diacid form; also recorded: considerably less hygroscopic than the amorphous disodium salt form”. The moisture absorbed in data set [1] (relative humidity range of 0 to 90%) turned out to be 2.3%. Further, the “Mean % Oral Bioavailability ± SD” value in data set [3] (dog, oral capsule (with microcrystalline cellulose as diluent), 10 mg/kg) is recorded as 13.8 ± 7.6%. The “bioavailability compared with other forms (in words)” value in data set [3] (dogs, vs disodium salt or dissolution-enhancing formulations of the diacid) is “increased bioavailability as compared to the disodium salt or dissolution-enhancing formulations of the diacid”. Also, the chemical stability entry in data set [5] is “chemically stable for at least three weeks”.
